Measured values published in patent US20130324545A1, “METHODS FOR THE REGULATION OF THE PROSTAGLANDIN F SYNTHASE (PGFS) ACTIVITY OF AKR1B1 AND USES THEREOF” (UNIVERSITE LAVAL, priority 2007, published 2013).
Like-named read-outs stand apart in the source and are kept apart here.

Experiments:
[1] = tested on: human endometrial epithelial (HIEEC) cells; assay: PGF2α and PGE2 production and enzyme expression in endometrial epithelial HIEEC cells stimulated with IL-1β (ELISA, Western blot); type: cell-based; conditions: for IC50: Homo sapiens; for PGF2α production / expression of PGF2α biosynthetic enzymes (AKR1B1, COX-1, COX-2): increasing doses of cytokine, HIEEC
Description: (§1) Western blot analysis was performed with approximately 20 μg total proteins from cultured cells on a 10% SDS-PAGE gel, followed by electro-transfer onto nitrocellulose membrane. The primary antibodies used for the present study were rabbit AKR1B1 (dilution 1:1000) and COX-2 (dilution 1:10 000) anti-sera and goat AKR1C3 (dilution 1:500) anti-serum. A β-actin monoclonal antibody (1:5000, Sigma, Mississauga, Ontario, Canada) was used as an internal control. Goat anti-rabbit IgG conjugated with horseradish peroxidase (HRP) (Jackson Immunoresearch Laboratories, West Grove, Pa., USA), rabbit anti-goat IgG HRP and goat anti-mouse IgG HRP were used as secondary antibodies. Chemiluminescence was analyzed with autoradiography films at optimal times of exposure following treatment of the membranes with Renaissance™ reagent (NEN Life Science Products, Boston, Mass., USA).
(§2) For cell culture transfection, immortalized human endometrial stromal cells (HIESC-2) and epithelial cells(HIEEC-22) were cultured in RPMI 1640 without phenol red, containing 50 IU penicillin-streptomycin supplemented with 10% whole fetal bovine serum (FBS). Ten percent dextran-coated charcoal-extracted FBS was used once cells have reached confluency. Knock-down and knock-in transfections of cells with AKR1B1 specific siRNA, AKR1B1 or AKRIC3 cDNAs in pCR3.1 expression vectors were performed with Lipofectamine™ 2000 for 4 hours in culture medium without antibiotic. Thirty-six hours after transfection (24 hours for siRNA transfection), cells were treated for 24 hours with recombinant human interleukin 1β (IL-1β) (1 ng/ml) (R&D Systems, Minneapolis, Minn., USA) or arachidonic acid (AA) 10 μM in RPMI 1640 medium without serum. At the end of the treatment period, the culture medium was recovered and stored at −20° C. until evaluation for PGF2α production.
(§3) Enzymatic immunoassay (EIA) was performed with an acetylcholinesterase-linked PGF2α tracer (Cayman) as described previously (Asselin et al., Biol Reprod 54(2); 371-9, 1996). Sheep anti-PGF2α (Bio-Quant, Ann Arbor, Mich., USA) was used as the selective antibody. Inter-assay and intra-assay coefficients of variations (n=12) were of 16% and 10% respectively. Statistical analysis was performed using ANOVA with Statview™ software (Abacus Concept, Calif.). Values were considered statistically significant for p<0.05.

[2] = diabetic subjects having neuropathies; cited from earlier work
AKR1B1 = biological target: T1, AKR1B1 (Homo sapiens, UniProt P15121); assay: Effect of ASA / COX inhibitors on AKR1B1 expression and PGF synthase activity in cells expressing AKR1B1; type: cell-based
T1 construct: endogenous in cells; host or cells: 'our cellular model'
Description: as §1

macrophages = macrophages treated with endotoxines or lipopolysaccharides; cited from earlier work
[3] = tested on: human primary cardiomyocytes; assay: Effect of IL-1β and TNF-α on PGF2α, COX-2 and AKR1B1 in human primary cardiomyocytes (ELISA, Western blot); type: cell-based; conditions: for PGF2α production: FIG. 19, ELISA; for AKR1B1 and COX-2 protein expression: FIG. 19, Western blot
Source text: FIG. 19 comprises FIG. 19A, 19B, 19C and 19D, and illustrates the effect of IL-1β and TNF-α on the production of PGF2α (A), COX-2 (B) and AKR1B1 (C) by human primary cardiomyocytes, as measured by ELISA and Western blot. FIG. 19D illustrates β-actin levels of the three cells groups.

[4] = tested on: primary human umbilical vein endothelial cells (HUVEC); assay: Effect of IL-1β and TNF-α on PGF2α, COX-2 and AKR1B1 in primary HUVEC; type: cell-based; conditions: for PGF2α production: ELISA; for COX-2 protein expression: endogenous AKR1B1 levels already high
Source text: FIG. 22 comprises FIGS. 22A and 22B, with FIG. 22A illustrating the effect of IL-1β and TNF-α on the production of PGF2α by primary human umbilical vein endothelial cells (HUVEC), as measured by ELISA; and FIG. 22B illustrating the effect of IL-1β and TNF-α on the protein expression of COX-2 and AKR1B1 in primary HUVEC.

[5] = tested on: human endometrial stromal (HIESC) cells; assay: PGF2α and PGE2 production and enzyme expression in endometrial stromal HIESC cells stimulated with IL-1β (ELISA, Western blot); type: cell-based; conditions: increasing doses of cytokine
Description: as §1, §2, §3

[6] = tested on: primary human umbilical vein smooth muscle cells (HUVSMC); assay: Effect of IL-1β on PGF2α, COX-2 and AKR1B1 in primary HUVSMC; type: cell-based
Source text: FIG. 21 comprises FIGS. 21A and 21B, with FIG. 21A illustrating the effect of IL-1β on the production of PGF2α by primary human umbilical vein smooth muscle cells (HUVSMC), as measured by ELISA; and FIG. 21B illustrating the effect of IL-1β on the protein expression of COX-2 and AKR1B1 in primary HUVSMC.

[7] = tested on: primary human umbilical artery smooth muscle cells (HUASMC); assay: Effect of IL-1β on PGF2α, COX-2 and AKR1B1 in primary HUASMC; type: cell-based
Source text: FIG. 20 comprises FIGS. 20A and 20B, with FIG. 20A illustrating the effect of IL-1β on the production of PGF2α by primary human umbilical artery smooth muscle cells (HUASMC), as measured by ELISA; and FIG. 20B illustrating the effect of IL-1β on the protein expression of COX-2 and AKR1B1 in primary HUASMC.

[8] = tested on: human endometrial stromal (HIESC) cells; assay: PGF2α and PGE2 production and enzyme expression in endometrial stromal HIESC cells stimulated with IL-1β (ELISA, Western blot); type: cell-based; conditions: for IC50: Homo sapiens, stromal HIESC cells stimulated by IL-1β, ELISA, range in brackets; for PGE2 production in presence of PG receptor antagonist: IL-1β-stimulated stromal HIESC
[9] = HIEEC cells stimulated by IL-1β, ELISA, range in brackets, read-out: IC50 PGE2 production
[10] = HIEEC cells treated with IL-1β, ELISA, range in brackets, read-out: IC50 PGF2α production
[11] = read-out: IC50 PGF2α production

## CS(=O)(=O)Nc1ccc([N+](=O)[O-])cc1OC1CCCCC1 [NS-398]
[1]; COX-1-expressing HIEEC, IL-1β
  inhibition of PGF2α production: did not completely inhibited

## O=C(O)Cc1nn(Cc2ccc(Br)cc2F)c(=O)c2ccccc12 [Statil™]
[2]
  side-effects: undesirable hepatic side-effects

## CS(=O)(=O)c1ccc(C2=C(c3ccccc3)C(=O)OC2)cc1 [rofecoxib]
AKR1B1
  AKR1B1 gene expression: do not influence
[1]; HIEEC cells stimulated with IL-1β
  inhibits production of PGE2 more efficiently than production of PGF2α: ten times more efficiently
[1]; [9]
  IC50: 51.7 nM
[1]; [10]
  IC50: 201 nM
[1]; at 10 μM
  PGF2α/PGE2 ratio: strong alteration of the PGF2α/PGE2 ratio in favor of PGF2α

## O=C(O)Cc1nn(Cc2nc3cc(C(F)(F)F)ccc3s2)c(=O)c2ccccc12 [Zopolrestat™]
macrophages
  production levels of PGE2: capable to reduce
[2]
  side-effects: undesirable hepatic side-effects

## TNF-α
[1]
  PGF2α production: increase in PGF2α production
  expression of PGF2α biosynthetic enzymes (AKR1B1, COX-1, COX-2): significant increase in expression of AKR1B1, COX-1 and COX-2
[3]
  PGF2α production: stimulated
  AKR1B1 and COX-2 protein expression: stimulated
[4]
  PGF2α production: stimulated
  COX-2 protein expression: stimulated
[5]
  PGF2α production: increase in PGF2α production
  expression of PGF2α biosynthetic enzymes (AKR1B1, COX-1, COX-2): significant increase in expression of AKR1B1, COX-1 and COX-2

## CC(=O)Oc1ccccc1C(=O)O [Aspirin, acetylsalicylic acid]
AKR1B1
  AKR1B1 gene expression: blocks
AKR1B1; 1-5 mM, cellular model
  inhibition of AKR1B1 protein: dose-dependent inhibition
AKR1B1; cells expressing AKR1B1
  PGF synthase activity: strongly reduced
  protein expression level of AKR1B1: strongly reduced
[1]; [11]
  IC50: 1940 nM

## IL-1β: recombinant human interleukin 1β
[6]
  AKR1B1 and COX-2 protein expression: stimulated
[6]; ELISA
  PGF2α production: stimulated
[7]
  AKR1B1 and COX-2 protein expression: stimulated
[7]; ELISA
  PGF2α production: stimulated
[1]; HIEEC-22, 1 ng/ml, Western blot
  AKR1C3 protein expression level: no effect
[1]
  PGF2α production: increase in PGF2α production
  expression of PGF2α biosynthetic enzymes (AKR1B1, COX-1, COX-2): significant increase in expression of AKR1B1, COX-1 and COX-2
[3]
  PGF2α production: stimulated
  AKR1B1 and COX-2 protein expression: stimulated
[4]
  PGF2α production: stimulated
  COX-2 protein expression: stimulated
[5]
  PGF2α production: increase in PGF2α production
  expression of PGF2α biosynthetic enzymes (AKR1B1, COX-1, COX-2): only of COX-2

## COc1ccc2cc([C@H](C)C(=O)O)ccc2c1 [naproxen]
[8]; read-out: IC50 PGE2 production
  IC50: 62.6 nM
[8]; [11]
  IC50: 43.8 nM
[8]; endometrial stromal cells (only express COX-2)
  inhibition of PGF2α versus PGE2 production, comparison of IC50: comparable IC50
[1]; HIEEC cells stimulated by IL-1β
  potency for inhibition of PGF2α production compared with Aspirin: more potent than Aspirin™
[1]; [9]
  IC50: 142 nM
[1]; [10]
  IC50: 4.62 nM
[1]; at 10 nM
  PGF2α/PGE2 ratio: strong alteration of the PGF2α/PGE2 ratio in favor of PGE2
[1]; endometrial epithelial cells (express COX-1 and COX-2)
  inhibits PGF2α more efficiently than PGE2: 100 times

## O=C(O)CCC/C=C\C[C@@H]1[C@@H](/C=C/[C@H](O)C2Cc3ccccc3C2)[C@@H](F)C[C@@H]1O [AL8810]
[8]
  PGE2 production in presence of PG receptor antagonist: induced a reduction in PGE2 production
[8]; listed as AL 8810
  PGE2 production in presence of PG receptor antagonist: reduced PGE2 production
[1]; IL-1β-stimulated epithelial HIEEC
  PGE2 production in presence of PG receptor antagonist: induced a reduction in PGE2 production

## COc1ccc2c(C(=S)N(C)CC(=O)O)cccc2c1C(F)(F)F [Tolrestat™]
macrophages
  production levels of PGE2: capable to reduce
[2]
  side-effects: undesirable hepatic side-effects

## O=C1NC(=O)[C@@]2(CCOc3ccc(F)cc32)N1 [Sorbinil™]
macrophages
  production levels of PGE2: capable to reduce
